The data set can be described thus: gradient 5% acetonitrile 3 min, to 50% in 2 min, to 85% in 15 min, held 3 min, 100 µL/min. The following applies: column: Zorbax Extend-C18 2.1 x 50 mm; eluents: water / acetonitrile, 0.1% formic acid. The procedure, abridged:
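Data were gathered over 3 months by HPLC coupled to a quadrupole time-of-flight mass spectrometer, operated in positive and negative ionization mode. Mixtures of ~100 pure standards ran on a Zorbax Extend-C18 column (2.1 × 50 mm, 1.8 μm) at 100 μL/min, with water and acetonitrile each containing 0.1% formic acid and dead and dwell volumes of 40 μL and 900 μL. Retention time was read from adduct peaks picked by computer and checked manually.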
`CCc1ccc(NC(=O)c2cc3c(=O)n(CC)ccc3n2C)cc1` yielded an RP-LC retention time of 753 s.
`Cc1ccc2c(Nc3ccc(C)c(C)c3)c(C(=O)N3CCOCC3)cnc2n1` registered an RP-LC retention time of 593 s.
Compound `O=C(CSc1nnc(-c2ccco2)o1)N1CCCc2ccccc21` registered an RP-LC retention time of 887 s.
For the compound `CN1CCN(CC(=O)N2CCNC(=O)C2CC(=O)Nc2cccc(C(F)(F)F)c2)CC1` (stereo unspecified), the RP-LC retention time is 602 s.
For the compound `CCCc1cc(N2CCN(C(=O)COc3ccccc3)CC2)nc2nncn12`, the RP-LC retention time came out at 640 s.
The figure for `O=C(Cn1cccc1-c1nnc(-c2ccccc2)o1)Nc1ccc2c(c1)OCCO2` is 897 s.
Regarding `Cc1ccc(-c2cc(N3CCN(C(=O)c4ccccc4Br)CC3)ncn2)cc1`, the RP-LC retention time turned out to be 696 s.
The figure for `O=C(COc1ccccc1Cl)Nc1ccc(-c2nc(-c3ccccc3)no2)cc1` is 1280 s.
`CN(C)S(=O)(=O)c1ccc(-c2nnc(C(=O)NCCN3CCCC3)o2)cc1`: the RP-LC retention time is 574 s.
On to `O=C(Cc1cccs1)NCc1cccnc1Oc1ccccc1`, for which the RP-LC retention time is 853 s.
As to `c1ccc2c(c1)CCN(c1nccnc1OC1CCNC1)C2` (stereo unspecified), the RP-LC retention time stood at 649 s.
In turn, `Cc1ccc(CNC(=O)c2ccc(-c3ccsc3)nc2)cc1` gave an RP-LC retention time of 905 s.
The compound `Cc1noc(-c2ccc(-n3cnc(C(=O)NC4CCCCCC4)c3)nc2)n1` came in with an RP-LC retention time of 896 s.
The compound `O=C(Nc1nc2ccc(Cl)cc2s1)C1CCN(C(=O)C2Sc3ccccc3NC2=O)CC1` (stereo unspecified) registered an RP-LC retention time of 903 s.
Take `Cn1cc2c3c(cccc31)CN(C(=O)Cc1ccccc1F)CC2`: the RP-LC retention time was determined as 954 s.
In turn, `COc1ccc2[nH]c3c(c2c1)CCNC3c1ccc(F)cc1` (stereo unspecified) had an RP-LC retention time of 623 s.
Take `Cc1nn(C)c(C)c1C(C)NC(=O)C1CCN(c2cnn(Cc3ccccc3)c(=O)c2)CC1` (stereo unspecified): the RP-LC retention time was found to be 650 s.
The figure for `O=C(c1cn(-c2cc(N3CCCCC3)ncn2)cn1)N1CC=C(c2ccccc2)CC1` is 1060 s.
The compound `CCCN1C(=O)C(CC(=O)N2CCN(C)CC2)Sc2ncccc21` (stereo unspecified) displayed an RP-LC retention time of 576 s.
With `COc1cccc(S(=O)(=O)N2CCC(N3CCN(Cc4ccccc4)C(=O)C3=O)CC2)c1`, the RP-LC retention time is 763 s.
Compound `Cc1ccc(-c2noc(C3CCCN3S(=O)(=O)c3ccc(Br)s3)n2)cc1` (stereo unspecified) showed an RP-LC retention time of 1220 s.
The figure for `Cc1cccc(NC(=O)Cn2nc3c(N(C)C4CCCCC4)nccn3c2=O)c1` is 714 s.
`CCc1nc(OCC(=O)Nc2ccccc2C(=O)OC)c2ccccc2n1` registered an RP-LC retention time of 902 s.
With `CCc1cc(=O)n(CC(=O)Nc2ccccc2F)c(-c2cccc(F)c2)n1`, the RP-LC retention time turned out to be 1170 s.
`O=C(c1ccc2oc(=O)n(CC(=O)N3CCc4ccccc43)c2c1)N1CCCCC1` had an RP-LC retention time of 845 s.
`Cc1ccc(-c2nc3cnccn3c2Nc2cccc(C(F)(F)F)c2)cc1` came in with an RP-LC retention time of 972 s.
In turn, `O=C(CCCSc1ccc(NC(=O)c2ccc(F)cc2)nn1)Nc1cccnc1` displayed an RP-LC retention time of 586 s.
Turning to `CCCOc1nc2ccccc2nc1N1CCCC(C(=O)NC2CC2)C1` (stereo unspecified), the RP-LC retention time was found to be 1010 s.
The figure for `O=S(=O)(c1cc(-c2noc(C3CCCC3)n2)cs1)N(Cc1cccs1)C1CCCC1` is 933 s.
Take `CCN1CCn2c(nc3cc(C(=O)NCc4ccc(C(F)(F)F)cc4)ccc32)C1=O`: the RP-LC retention time stood at 741 s.
In turn, `CCn1c(=O)c(C)nc2cc(C(=O)NCCc3c[nH]c4ccc(Cl)cc34)ccc21` came in with an RP-LC retention time of 833 s.
`Cc1c(C(=O)N2CCCC2)cnn1-c1cc(-c2nc(C(C)(C)C)no2)ccn1` gave an RP-LC retention time of 1030 s.
In turn, `CCCCc1ccc(NC(=O)Cn2nc3c(Sc4ccccc4)nccn3c2=O)cc1` had an RP-LC retention time of 1100 s.
The compound `O=C(C1=CN(c2ccc(F)c(F)c2)c2ccccc2S1(=O)=O)N1CCCCC1` gave an RP-LC retention time of 1040 s.
Compound `Cc1ccc(Nc2c(-c3ccc(Br)cc3)nc3cnccn23)c(Br)c1` gave an RP-LC retention time of 1230 s.
In turn, `O=C(NC1CCN(c2cc(-c3ccccc3)[nH]n2)C1)c1ccc(Br)cc1` (stereo unspecified) gave an RP-LC retention time of 752 s.
Turning to `CCn1ccc2c(cc(C(=O)Nc3ccc4c(c3)OCCO4)n2C)c1=O`, the RP-LC retention time came out at 721 s.
Regarding `Cn1c(C(=O)N(Cc2ccccc2)Cc2ccccc2)cc2c(=O)n3ccccc3nc21`, the RP-LC retention time was found to be 1040 s.
Compound `O=C(CSc1ncnc2nc[nH]c12)Nc1ccccc1C(F)(F)F` returned an RP-LC retention time of 618 s.
`Cc1noc(C2(NC(=O)c3ccc(C(C)(C)C)cc3)CCCCC2)n1` returned an RP-LC retention time of 1090 s.
Consider `CC(C)n1cnc(S(=O)(=O)N2CCCC(C(=O)NCc3ccccc3)C2)c1` (stereo unspecified), for which the RP-LC retention time worked out at 702 s.
As for `Cc1ccc(NC(=O)Cn2c(=O)n(-c3ccccc3)c(=O)c3c2cc(C)n3C)cc1C`, the RP-LC retention time was 886 s.
In the case of `CC(C)n1cnc(S(=O)(=O)N2CCC(C(=O)Nc3cccc(-c4ccno4)c3)CC2)c1`, the RP-LC retention time amounted to 753 s.
The figure for `O=C(Cc1csc(-n2cccc2)n1)N1CCN(c2ccccn2)CC1` is 623 s; for `COCCCn1cnc2c(-c3ccccc3)cn(CC(=O)NCc3ccco3)c2c1=O` it is 802 s.
With `Cn1nccc1C(=O)Nc1c(-c2ccccc2)nc2sc(N3CCCCC3)nn12`, the RP-LC retention time was 678 s.
Take `COC(=O)c1c(NC(C)C)c2cccc(Cl)c2[nH]c1=O`: the RP-LC retention time stood at 725 s.
The figure for `O=C(C1=CN(c2ccc(Br)cc2)c2cc(F)ccc2S1(=O)=O)N1CCOCC1` is 826 s.
In turn, `CN(C)C(=O)c1[nH]c2ccccc2c1N1CCCC1=O` showed an RP-LC retention time of 604 s.
In the case of `Cc1c(-c2noc(C(=O)N3CCN(Cc4ccc5c(c4)OCO5)CC3)n2)oc2c(C)cccc12`, the RP-LC retention time amounted to 837 s.
On to `C=CCNC(=O)c1nc(C(=O)N2CCc3ccccc3C2)cs1`, for which the RP-LC retention time was 811 s.
The result for `O=C(CNC(=O)Cc1ccccc1)NCc1[nH]nc2ccccc12` reads 648 s; that for `Cc1ccc(N2C(=O)CN(CCc3cccs3)[C@H]3CS(=O)(=O)C[C@H]32)cc1`, 825 s; that for `Cc1ccc(C)c(-c2cc(C(N)=O)[nH]n2)c1`, 695 s.
Compound `O=C(NC1CC1)c1ccc(-c2cccs2)nc1` showed an RP-LC retention time of 716 s.
Compound `COc1ccc(-c2nc3sc(C(=O)N(C)C)c(C)n3c2NC(C)(C)C)cc1` showed an RP-LC retention time of 742 s.
`Cc1cnnn1-c1ccc(C(=O)Nc2nccs2)cc1` displayed an RP-LC retention time of 623 s.
`COc1ccc(-c2ccc(=O)n(Cc3nc(-c4cccc(Cl)c4)no3)n2)cc1OC`: the RP-LC retention time is 976 s.
Take `CCn1cnc(S(=O)(=O)N2CCCC(C(=O)Nc3cc(C)cc(C)c3)C2)c1` (stereo unspecified): the RP-LC retention time stood at 803 s.
`Cc1nnc(NC(=O)CSc2cc(N3CCCC3)ncn2)s1` showed an RP-LC retention time of 577 s.
In turn, `CCCC(NC(=O)CCc1ccccc1OC)C(=O)Nc1nc2ccccc2[nH]1` (stereo unspecified) came in with an RP-LC retention time of 750 s.
In turn, `CC1CC(C)CN(S(=O)(=O)N2CCCC(C(=O)NCc3ccc(F)cc3)C2)C1` (stereo unspecified) had an RP-LC retention time of 1060 s.
`COc1cc(CCC(=O)N2CCNc3ccccc3C2)cc(OC)c1OC` yielded an RP-LC retention time of 710 s.
In turn, `Cc1cc(C(=O)N2CCCn3nc(-c4cccs4)cc3C2)no1` came in with an RP-LC retention time of 791 s.
As to `Cc1cc(C)cc(C(=O)N2CCC(COc3ccc(C(=O)NC(C)C)cc3)CC2)c1`, the RP-LC retention time was found to be 953 s.
The figure for `COc1ccc(NC(=O)Nc2nc(CCC(=O)O)cs2)cc1` is 647 s; for `Cc1ccn2cc(-c3ccc(NS(=O)(=O)c4ccc5nc(C)sc5c4)cc3)nc2n1` it is 641 s; for `O=C(NCc1cccs1)C1CCN(c2nnc(-c3ccccc3)o2)CC1` it is 769 s.
In turn, `CCc1nnc(C2CCN(S(=O)(=O)c3cccnc3)CC2)s1` came in with an RP-LC retention time of 652 s.
For `Cc1nc2cccnc2n1CC1CCCN(S(=O)(=O)Cc2ccc(Cl)cc2)C1` (stereo unspecified), the RP-LC retention time stood at 718 s.
Turning to `CCn1cc(C(=O)NCC2CC2)c(S(=O)(=O)N2CCSCC2)n1`, the RP-LC retention time amounted to 817 s.
`O=C(CC1CCCC1)N1CCC(N(Cc2cccnc2)C2CCOCC2)CC1` had an RP-LC retention time of 604 s.
Regarding `Cc1ccc(CNC(=O)N2[C@H]3CC[C@@H]2c2cncnc2C3)cc1`, the RP-LC retention time was determined as 735 s.
The result for `CCCCN1CCN(C(=O)c2nnc(-c3ccc(S(=O)(=O)N(C)C)cc3)o2)CC1` reads 620 s; that for `COc1cc(OC)cc(C(=O)N2CCC3(C2)C(=O)Nc2ccc(OC)cc23)c1` (stereo unspecified), 710 s.
The figure for `O=C(NCC(O)c1cccc2ccccc12)c1c(F)cccc1Cl` (stereo unspecified) is 796 s; for `Cc1cc(C)n(-c2ccnc(N3CCC(C(=O)NCCc4cccs4)CC3)n2)n1` it is 843 s.
The result for `Cc1ccc(NC(=O)CN2C(=O)CN(C)C(=O)c3ccccc32)c(Br)c1` reads 734 s; that for `COc1ccc(N2CC(C(=O)NCC(=O)N3CCCc4ccccc43)CC2=O)cc1` (stereo unspecified), 724 s; that for `O=C(CC1CCCC1)N1CCC(c2noc(-c3cnccn3)n2)C1` (stereo unspecified), 726 s.
With `O=C(Nc1cnc(-c2ccccc2)nc1)C1CCCC1`, the RP-LC retention time is 936 s.

The record behind these values is the METLIN SMRT retention time set (Domingo-Almenara et al. 2019).
